Reference: patent US12134620B2 (ARAXES PHARMA LLC, priority 2018, dated 2024)

Biological target: T1, KRAS G12C 1-169, his-tagged protein, GDP-loaded (Homo sapiens, UniProt P01116, G12C)
T1 construct: KRAS G12C 1-169, his-tagged protein, GDP-loaded; His tag
Assay: Biochemical assay: covalent modification of KRAS G12C, analysed by mass spectrometry (RapidFire/TOF or Q-Exactive); also: time not given here
Assay type: binding
Settings: Modification activity, modification percentage from MS peak intensities
Method in brief: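 GDP-loaded His-tagged KRAS G12C 1-169 (2 μM or 0.5 μM in 20 mM Hepes, 150 mM NaCl, 1 mM MgCl2) reacted with compound at 32 μM or 8 μM final (2% DMSO) for a set time, then quenched with formic acid. Percent covalent modification from deconvoluted intact-protein MS peak intensities (RapidFire/TOF or LC-Q Exactive).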

`C=CC(=O)N1CC2(CCN(c3nc(N4CCOCC4)nc(-c4c(C)ccc5[nH]nc(C6CC6)c45)c3C#N)C2)C1` [Compound I-206, 4-(2-acryloyl-2,6-diazaspiro[3.4]octan-6-yl)-6-(3-cyclopropyl-5-methyl-1H-indazol-4-yl)-2-morpholinopyrimidine-5-carbonitrile] was tested. Which Binding % did it give?
Its Binding % is “+ (+ indicates binding activity greater than 0% and up to 50%)”.

For `C=CC(=O)N1CC2(CCN(c3cnc(-c4ccccc4)c(-c4c(C)ccc5[nH]ncc45)c3C#N)C2)C1` [Compound I-207, 5-(2-acryloyl-2,6-diazaspiro[3.4]octan-6-yl)-3-(5-methyl-1H-indazol-4-yl)-2-phenylisonicotinonitrile], which Binding % is on record?
The Binding % was “++ (++ indicates binding activity from 50 to 85%)”.

For `C=CC(=O)N1CC2(CCN(c3cnc(-c4ccccc4)c(-c4c(C)ccc5cnn(C)c45)c3C#N)C2)C1` [Compound I-208, 5-(2-acryloyl-2,6-diazaspiro[3.4]octan-6-yl)-3-(1,6-dimethyl-1H-indazol-7-yl)-2-phenylisonicotinonitrile], which Binding % is on record?
Its Binding % is “+ (+ indicates binding activity greater than 0% and up to 50%)”.

With `C=CC(=O)N1CC2(CCN(c3nc(N4CCC[C@@H]4CO)nc(-c4c(C)ccc5[nH]ncc45)c3C#N)C2)C1` [Compound I-209, 4-(2-acryloyl-2,6-diazaspiro[3.4]octan-6-yl)-2-((R)-2-(hydroxymethyl)pyrro-lidin-1-yl)-6-(5-methyl-1H-indazol-4-yl)pyrimidine-5-carbonitrile] as the molecule, how does the Binding % read?
Its Binding % is “++ (++ indicates binding activity from 50 to 85%)”.

With `C=CC(=O)N1CC2(CCN(c3nc(N4CCC[C@H]4CO)nc(-c4c(C)ccc5[nH]ncc45)c3C#N)C2)C1` [Compound I-210, 4-(2-acryloyl-2,6-diazaspiro[3.4]octan-6-yl)-2-((S)-2-(hydroxymethyl)pyrro-lidin-1-yl)-6-(5-methyl-1H-indazol-4-yl)pyrimidin-5-carbonitrile] as the molecule, how does the Binding % read?
The Binding % was “+ (+ indicates binding activity greater than 0% and up to 50%)”.

For `C=CC(=O)N1CC2(CCN(c3nc(N4CCC[C@H](CO)C4)nc(-c4c(C)ccc5[nH]ncc45)c3C#N)C2)C1` [Compound I-211, 4-(2-acryloyl-2,6-diazaspiro[3.4]octan-6-yl)-2-((S)-3-(hydroxymethyl)piperi-din-1-yl)-6-(5-methyl-1H-indazol-4-yl)pyrimidine-5-carbonitrile], which Binding % is on record?
Its Binding % is “++ (++ indicates binding activity from 50 to 85%)”.

Which Binding % does the source give for `C=CC(=O)N1CC2(CCN(c3nc(N4CCC[C@@H](CO)C4)nc(-c4c(C)ccc5[nH]ncc45)c3C#N)C2)C1` [Compound I-212, 4-(2-acryloyl-2,6-diazaspiro[3.4]octan-6-yl)-2-((R)-3-(hydroxymethyl)piper-idin-1-yl)-6-(5-methyl-1H-indazol-4-yl)pyrimidine-5-carbontrile] here?
Its Binding % is “++ (++ indicates binding activity from 50 to 85%)”.

With `C=CC(=O)N1CC2(CCN(c3nc(N4CCC(CN(C)C)CC4)nc(-c4c(C)ccc5[nH]ncc45)c3C#N)C2)C1` [Compound I-213, 4-(2-acryloyl-2,6-diazaspiro[3.4]octan-6-yl)-2-(4-((dimethylamino)meth-yl)piperidin-1-yl)-6-(5-methyl-1H-indazol-4-yl)pyrimidine-5-carbontrile] as the molecule, how does the Binding % read?
Its Binding % is “+++ (+++ indicates binding activity greater than 85%)”.

For `C=CC(=O)N1CC2(CCN(c3cnc(Oc4ccccc4)c(-c4c(C)ccc5[nH]ncc45)c3C#N)C2)C1` [Compound I-214, 5-(2-acryloyl-2,6-diazaspiro[3.4]octan-6-yl)-3-(5-methyl-1H-indazol-4-yl)-2-phenoxyisonicotinoni-trile], which Binding % is on record?
Its Binding % is “++ (++ indicates binding activity from 50 to 85%)”.

For `C=CC(=O)N1CC2(CCN(c3cnc(Oc4ccccc4)c(-c4c(C)ccc5cnn(C)c45)c3C#N)C2)C1` [Compound I-215, 5-(2-acryloyl-2,6-diazaspiro[3.4]octan-6-yl)-3-(1,6-dimethyl-1H-indazol-7-yl)-2-phenoxyisonicotinoni-trile], which Binding % is on record?
Its Binding % is “++ (++ indicates binding activity from 50 to 85%)”.

`C=CC(=O)N1CC2(CCN(c3nc(N4CCC(N5CCN(C6CC6)CC5)CC4)nc(-c4c(C)ccc5cnn(C)c45)c3C#N)C2)C1` [Compound I-216, 4-(2-acryloyl-2,6-diazaspiro[3.4]octan-6-yl)-2-(4-(4-cyclopropylpiperazin-1-yl)piperidin-1-yl)-6-(1,6-dimethyl-1H-indazol-7-yl)pyrimidine-5-carbonitrile] was tested. Which Binding % did it give?
The Binding % was “++ (++ indicates binding activity from 50 to 85%)”.

With `C=CC(=O)N1CC2(CCN(c3nc(N4CCC(N5CCN(C6CC6)CC5)CC4)nc(-c4c(C)ccc5[nH]ncc45)c3C#N)C2)C1` [Compound I-217, 4-(2-acryloyl-2,6-diazaspiro[3.4]octan-6-yl)-2-(4-(4-cyclopropylpiperazin-1-yl)piperidin-1-yl)-6-(5-methyl-1H-indazol-4-yl)pyrimidine-5-carbonitrile] as the molecule, how does the Binding % read?
The Binding % was “++ (++ indicates binding activity from 50 to 85%)”.

How did the Binding % turn out when `C=CC(=O)N1CC2(CCN(c3c(OCCCN(C)C)ncc(-c4c(C)ccc5[nH]ncc45)c3C#N)C2)C1` [Compound I-218, 3-(2-acryloyl-2,6-diazaspiro[3.4]octan-6-yl)-2-(3-(dimethylamino)pro-poxy)-5-(5-methyl-1H-indazol-4-yl)isonicotinonitrile] was run?
Its Binding % is “++ (++ indicates binding activity from 50 to 85%)”.

Which Binding % does the source give for `C=CC(=O)N1CC2(CCN(c3nc(OCc4ccccn4)nc(-c4c(C)ccc5[nH]ncc45)n3)C2)C1` [Compound I-219, 1-(6-(4-(5-methyl-1H-indazol-4-yl)-6-(pyridin-2-ylmethoxy)-1,3,5-triazin-2-yl)-2,6-diazaspiro[3.4]octan-2-yl)prop-2-en-1-one] here?
The Binding % was “+ (+ indicates binding activity greater than 0% and up to 50%)”.

Which Binding % does the source give for `C=CC(=O)N1CC2(CCN(c3cnc(OCc4ccccc4)c(-c4c(C)ccc5[nH]ncc45)c3C#N)C2)C1` [Compound I-220, 5-(2-acryloyl-2,6-diazaspiro[3.4]octan-6-yl)-2-(benzyloxy)-3-(5-methyl-1H-indazol-4-yl)isonicotinonitrile] here?
Its Binding % is “++ (++ indicates binding activity from 50 to 85%)”.

`C=CC(=O)N1CC2(CCN(c3cnc(OCCc4ccccc4)c(-c4c(C)ccc5[nH]ncc45)c3C#N)C2)C1` [Compound I-221, 5-(2-acryloyl-2,6-diazaspiro[3.4]octan-6-yl)-3-(5-methyl-1H-indazol-4-yl)-2-phenethoxyisonicoti-nonitrile] was tested. Which Binding % did it give?
Its Binding % is “++ (++ indicates binding activity from 50 to 85%)”.

Which Binding % does the source give for `C=CC(=O)N1CC2(CCN(c3cnc(OCCc4ccccc4)c(-c4c(C)ccc5cnn(C)c45)c3C#N)C2)C1` [Compound I-222, 5-(2-acryloyl-2,6-diazaspiro[3.4]octan-6-yl)-3-(1,6-dimethyl-1H-indazol-7-yl)-2-phenethoxyisonicoti-nonitrile] here?
The Binding % was “++ (++ indicates binding activity from 50 to 85%)”.

How did the Binding % turn out when `C=CC(=O)N1CC2(CCN(c3cnc(Cc4ccccc4)c(-c4c(C)ccc5[nH]ncc45)c3C#N)C2)C1` [Compound I-223, 5-(2-acryloyl-2,6-diazaspiro[3.4]octan-6-yl)-2-benzyl-3-(5-methyl-1H-indazol-4-yl)isonicotinonitrile] was run?
Its Binding % is “++ (++ indicates binding activity from 50 to 85%)”.

With `C=CC(=O)N1CC2(CCN(c3cnc(Cc4ccccc4)c(-c4c(C)ccc5cnn(C)c45)c3C#N)C2)C1` [Compound I-224] as the molecule, how does the Binding % read?
The Binding % was “++ (++ indicates binding activity from 50 to 85%)”.

With `C=CC(=O)N1CC2(CCN(c3cnc(OCc4ccccc4)c(-c4c(C)ccc5cnn(C)c45)c3C#N)C2)C1` [Compound I-225, 5-(2-acryloyl-2,6-diazaspiro[3.4]octan-6-yl)-2-(benzyloxy)-3-(1,6-dimethyl-1H-indazol-7-yl)isonicotinonitrile] as the molecule, how does the Binding % read?
The Binding % was “++ (++ indicates binding activity from 50 to 85%)”.

`C=CC(=O)N1CC2(CCN(c3cc(-c4c(C)ccc5cn[nH]c45)ncn3)C2)C1` [Compound I-226, 1-(6-(6-(6-methyl-1H-indazol-7-yl)pyrimidin-4-yl)-2,6-diazaspiro[3.4]octan-2-yl)prop-2-en-1-one] was tested. Which Binding % did it give?
Its Binding % is “+ (+ indicates binding activity greater than 0% and up to 50%)”.

`C=CC(=O)N1CC2(CCN(c3ncnc(-c4c(C)ccc5cn[nH]c45)c3C#N)C2)C1` [Compound I-227, 4-(2-acryloyl-2,6-diazaspiro[3.4]octan-6-yl)-6-(6-methyl-1H-indazol-7-yl)pyrimidine-5-carbonitrile] was tested. Which Binding % did it give?
The Binding % was “+ (+ indicates binding activity greater than 0% and up to 50%)”.

How did the Binding % turn out when `C=CC(=O)N1CC2(CCN(c3ncnc(-c4c(O)cccc4F)c3C#N)C2)C1` [Compound I-228, 4-(2-acryloyl-2,6-diazaspiro[3.4]octan-6-yl)-6-(2-fluoro-6-hydroxyphenyl)pyri-midine-5-carbonitrile] was run?
The Binding % was “+ (+ indicates binding activity greater than 0% and up to 50%)”.

For `C=CC(=O)N1CC2(CCN(c3cc(-c4c(C)ccc5[nH]ncc45)ncn3)C2)C1` [Compound I-229, 1-(6-(6-(5-methyl-1H-indazol-4-yl)pyrimidin-4-yl)-2,6-diazaspiro[3.4]octan-2-yl)prop-2-en-1-one], which Binding % is on record?
Its Binding % is “+ (+ indicates binding activity greater than 0% and up to 50%)”.

For `C=CC(=O)N1CC2(CCN(c3cc(-c4c(O)cccc4F)ncn3)C2)C1` [Compound I-230, 1-(6-(6-(2-fluoro-6-hydroxyphenyl)pyri-midin-4-yl)-2,6-diazaspiro[3.4]octan-2-yl)prop-2-en-1-one], which Binding % is on record?
Its Binding % is “+ (+ indicates binding activity greater than 0% and up to 50%)”.

For `C=CC(=O)N1CC2(CCN(c3ncnc(-c4c(C)ccc5[nH]ncc45)c3C#N)C2)C1` [Compound I-231, 4-(2-acryloyl-2,6-diazaspiro[3.4]octan-6-yl)-6-(5-methyl-1H-indazol-4-yl)pyrimidine-5-carbonitrile], which Binding % is on record?
Its Binding % is “+ (+ indicates binding activity greater than 0% and up to 50%)”.
